The record followed here is publication PMC7415729 (Pharmacology, biochemistry, and behavior, 2020).

Data set [1] relates to C57BL/6 mice. The data set is described as follows: Cannabinoid tetrad: hypothermia. Type of data set: in vivo, mouse. The settings on record: for reduction of rectal temperature below the physiological range: highest tested dose.
Data set [2] concerns C57BL/6 mice. The experiment in a line: Cannabinoid tetrad: antinociception. Type of data set: in vivo, mouse. Particulars: for tail withdrawal latency, % of the maximum: maximal latency 10 sec.
Data set [3] relates to C57BL/6 mice. The experiment in a line: Cannabinoid tetrad: catalepsy. Type of data set: in vivo, mouse.
The test system of data set [4] is C57BL/6 mice. The experiment in a line: Cannabinoid tetrad: locomotor activity. Type of data set: in vivo, mouse. The settings on record: for decrease of locomotor activity below the vehicle control condition: highest tested dose.
Data set [5] concerns C57BL/6 mice. The data set is described as follows: Radiotelemetry of core temperature with 1-ABT pretreatment. Type of data set: in vivo, mouse.
Data set [6] deals with HLM (human liver microsomes). The experiment in a line: Oxidative metabolism by human microsomes. Type of data set: in vitro ADME. Particulars: 50 μM 5F-AKB48, mixed gender HLM 1 μg/μl, 60 min.
Data set [7] has as its system HIM (human intestinal microsomes). The data set is described as follows: Oxidative metabolism by human microsomes. The settings on record: 50 μM 5F-AKB48, HIM 1 μg/μl, 60 min. Type of data set: in vitro ADME.
The subject of data set [8] is HBM (human brain microsomes). The data set is described as follows: Oxidative metabolism by human microsomes. Type of data set: in vitro ADME. The settings on record: 50 μM 5F-AKB48, HBM 1 μg/μl, 60 min.
Data set [9] concerns the target T1, CB1 receptors (Mus musculus, UniProt P47746). The data set is described as follows: [35S]GTPγS binding. Particulars: for EC50: N=3.
Data set [10] deals with T1, CB1 receptors. The experiment in a line: Competition receptor binding vs [3H]CP-55,940 in mouse brain membranes. The settings on record: pKi, displacement of 0.2 nM [3H]CP-55,940, mouse brain membranes, N=3.
Where [11] appears, read: 5F-AKB48 3.2 mg/kg, mice pretreated with 100 mg/kg 1-ABT.
[12] abbreviates: 5F-AKB48 3.2 mg/kg, vehicle-pretreated mice.
The mark [13] stands for this setting: rimonabant 10.0 mg/kg i.p. before 3.2 mg/kg 5F-AKB48.
Setting [14] is: rimonabant 10.0 mg/kg i.p. before 32 mg/kg Δ9-THC.

SMILES strings stand for the structures.

T1 sequence (P47746 whole entry): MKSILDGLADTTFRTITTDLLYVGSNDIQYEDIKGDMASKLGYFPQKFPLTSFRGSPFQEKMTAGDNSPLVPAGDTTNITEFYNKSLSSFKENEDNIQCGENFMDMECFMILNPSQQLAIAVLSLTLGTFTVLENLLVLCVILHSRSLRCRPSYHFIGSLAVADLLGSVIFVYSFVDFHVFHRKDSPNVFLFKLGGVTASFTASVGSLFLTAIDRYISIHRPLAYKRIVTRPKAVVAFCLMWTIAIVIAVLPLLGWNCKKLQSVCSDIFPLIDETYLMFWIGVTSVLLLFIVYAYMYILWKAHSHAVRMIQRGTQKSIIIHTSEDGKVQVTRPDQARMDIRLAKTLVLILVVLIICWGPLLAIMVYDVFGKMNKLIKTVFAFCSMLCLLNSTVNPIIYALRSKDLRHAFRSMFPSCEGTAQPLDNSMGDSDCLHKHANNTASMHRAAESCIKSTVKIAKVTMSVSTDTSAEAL

On to `O=C(NC12CC3CC(CC(C3)C1)C2)c1nn(CCCCCF)c2ccccc12` [5F-AKB48, N-(adamantan-1-yl)-1-(5-fluoropentyl)-1H-indazole-3-carboxamide], for which, in the data set with C57BL/6 mice [1] (5F-AKB48 3.2 mg/kg i.p.), the “time by which hypothermic effects completely resolved” value is no more than 4 h and the “reduction of rectal temperature below the physiological range” value is on record as “approximately 4 °”. Also, in the data set on C57BL/6 mice [2] (5F-AKB48 3.2 mg/kg i.p.), the “duration of antinociceptive effects (still apparent)” value is listed as “at least 6 hours”. Further, the “tail withdrawal latency, % of the maximum” value in the data set with C57BL/6 mice [2] (5F-AKB48 3.2 mg/kg i.p., by 15 min post-injection) is reported as “approximately 90%”. Moreover, in the data set on C57BL/6 mice [3] (5F-AKB48 3.2 mg/kg i.p.), the “time by which cataleptic effects largely resolved” value was no more than 3 h. In the data set with C57BL/6 mice [3] (5F-AKB48 3.2 mg/kg i.p., any time point, 30 sec cut-off), this molecule had a horizontal bar latency of less than 30 s. Also, the “decrease of locomotor activity below the vehicle control condition” value with C57BL/6 mice [4] (5F-AKB48 3.2 mg/kg i.p.) was “approximately 5 fold”. In the data set on C57BL/6 mice [5] (setting [11]), the “duration of hypothermic action” value is “at least 12 hours” and the “minimum core temperature below the physiological range” value was “approximately 7 °”. Besides, in the data set on C57BL/6 mice [5] (setting [12]), the “minimum core temperature below the physiological range” value is listed as “approximately 7 °” and the “time by which hypothermic effects completely resolved” value is no more than 4 h. The “area under the curve for hypothermic effects, 1-ABT-treated vs vehicle mice” value in the data set with C57BL/6 mice [5] (5F-AKB48 3.2 mg/kg, 100 mg/kg 1-ABT pretreatment) is listed as “approximately 5 fold”. The “production of hydroxylated metabolites” value in data set [6] is “highest amount”. The “oxidative activity / metabolite production” value in [7] was “significant amount of activity”. The oxidative activity entry in data set [8] is “did not show any activity”. Moreover, at CB1 receptors [9] (1 μM compound + rimonabant 100 nM, mouse brain membranes), the “G protein activation by 1 μM compound on co-incubation with rimonabant” value is “complete reversal”. This molecule also showed a concentration giving a half-maximal response (EC50) at CB1 receptors [9] (pEC50, [35S]GTPγS binding, mouse brain membranes) of 6.24 nM. At CB1 receptors [9] (potency (EC50), [35S]GTPγS binding, mouse brain membranes 25 μg), this molecule registered an EC50 of 7.7 nM. The Emax at CB1 receptors [9] (read-out: Emax, increase of [35S]GTPγS binding) came to 182%. The molecule further showed a Ki at CB1 receptors [10] of 0.665 nM.

In the case of `CCCCCc1cc(O)c2c(c1)OC(C)(C)[C@@H]1CCC(C)=C[C@@H]21` [Δ^9-THC, Δ^9-tetrahydrocannabinol], in the data set with C57BL/6 mice [1] (Δ9-THC 32 mg/kg i.p.), the “duration of hypothermic effects (still apparent after drug administration)” value is no less than 6 h and the “reduction of rectal temperature below the physiological range” value was “approximately 4 °”. Also, the “duration of antinociceptive effects (still apparent)” value in the data set with C57BL/6 mice [2] (Δ9-THC 32 mg/kg i.p.) is on record as “at least 6 hours”. For the same molecule, the “tail withdrawal latency, % of the maximum” value with C57BL/6 mice [2] (Δ9-THC 32 mg/kg i.p., by 30 min post-injection) is “approximately 90%”. Moreover, the “duration of cataleptic effects (still apparent)” value in the data set on C57BL/6 mice [3] (Δ9-THC 32 mg/kg i.p.) was no less than 6 h. Further, the horizontal bar latency in the data set with C57BL/6 mice [3] (Δ9-THC 32 mg/kg i.p., by 15 min post-injection, 30 sec maximum) is roughly 30 s. The “decrease of locomotor activity below the vehicle control condition” value in the data set with C57BL/6 mice [4] (Δ9-THC 32 mg/kg i.p.) is given as “approximately 5 fold”.

As to `Nn1nnc2ccccc21` [1-ABT, reference compound], in the data set on C57BL/6 mice [5] (100 mg/kg 1-ABT alone, 2 hours), the “effect on core temperature” value is on record as “no systematic changes in temperature”.

For `Cc1c(C(=O)NN2CCCCC2)nn(-c2ccc(Cl)cc2Cl)c1-c1ccc(Cl)cc1` [rimonabant], the “effect of prior rimonabant on hypothermic effects of 5F-AKB48” value in the data set on C57BL/6 mice [1] (setting [13]) was “completely blocked”. Moreover, the “effect of prior rimonabant on hypothermic effects of Δ9-THC” value in the data set on C57BL/6 mice [1] (setting [14]) is “completely blocked”. Also, the “effect of prior rimonabant on antinociceptive effects of 5F-AKB48” value with C57BL/6 mice [2] (setting [13]) is recorded as “completely blocked”. In addition, the “effect of prior rimonabant on antinociceptive effects of Δ9-THC” value in the data set on C57BL/6 mice [2] (setting [14]) is listed as “completely blocked”. For the same molecule, in the data set with C57BL/6 mice [3] (setting [13]), the “effect of prior rimonabant on cataleptic effects of 5F-AKB48” value is recorded as “completely blocked”. Further, the “effect of prior rimonabant on cataleptic effects of Δ9-THC” value in the data set with C57BL/6 mice [3] (setting [14]) was “completely blocked”. In addition, the “effect of prior rimonabant on hypolocomotor effects of 5F-AKB48” value in the data set on C57BL/6 mice [4] (setting [13]) was “partially attenuated”. Besides, the “effect of prior rimonabant on hypolocomotor effects of Δ9-THC” value with C57BL/6 mice [4] (setting [14]) is recorded as “partially attenuated”.
